{"source": "ChEMBL document CHEMBL1275466", "about": "“Diversity of penicillin binding proteins among clinical Streptococcus pneumoniae strains from Portugal” (2008)", "format_in_all_cases": "functional", "key": {"[1]": {"tested_on": "Streptococcus pneumoniae", "test": "Antibacterial activity against multidrug resistant Streptococcus pneumoniae serotype 19F URA3699 harboring mutant PBP2B PBP2X and PBP1A"}, "[2]": {"tested_on": "Streptococcus pneumoniae", "test": "Antibacterial activity against multidrug resistant Streptococcus pneumoniae serotype 6B ATCC 700670 harboring mutant PBP2B PBP2X and PBP1A"}, "[3]": {"tested_on": "Streptococcus pneumoniae", "test": "Antibacterial activity against Streptococcus pneumoniae serotype 3 URA3537 harboring mutant PBP1A"}, "[4]": {"tested_on": "Streptococcus pneumoniae", "test": "Antibacterial activity against penicillin-resistant Streptococcus pneumoniae serotype 14 URA4731 harboring mutant PBP2B PBP2X and PBP1A"}, "[5]": {"tested_on": "Streptococcus pneumoniae", "test": "Antibacterial activity against Streptococcus pneumoniae URA2543 harboring mutant PBP1A"}, "[6]": {"tested_on": "Streptococcus pneumoniae", "test": "Antibacterial activity against Streptococcus pneumoniae serotype 4 ATCC BAA-334 harboring mutant PBP1A"}, "[7]": {"tested_on": "Streptococcus pneumoniae", "test": "Antibacterial activity against multidrug resistant Streptococcus pneumoniae serotype 23F ATCC 51916 harboring mutant PBP2B PBP2X and PBP1A"}, "[8]": {"tested_on": "Streptococcus pneumoniae", "test": "Antibacterial activity against Streptococcus pneumoniae serotype 9V URA4929 harboring mutant PBP1A"}, "[9]": {"tested_on": "Streptococcus pneumoniae", "test": "Antibacterial activity against erythromycin-resistant Streptococcus pneumoniae serotype 14 URA4933 harboring mutant PBP2X and PBP1A"}, "[10]": {"tested_on": "Streptococcus pneumoniae", "test": "Antibacterial activity against Streptococcus pneumoniae serotype 19F URA4087 harboring mutant PBP2X and PBP1A"}, "[11]": {"tested_on": "Streptococcus pneumoniae", "test": "Antibacterial activity against multidrug resistant Streptococcus pneumoniae serotype 6B URA4566 harboring mutant PBP2B PBP2X and PBP1A"}, "[12]": {"tested_on": "Streptococcus pneumoniae", "test": "Antibacterial activity against Streptococcus pneumoniae serotype 22 URA2542 harboring PBP2B harboring mutant PBP2B PBP2X and PBP1A"}, "[13]": {"tested_on": "Streptococcus pneumoniae", "test": "Antibacterial activity against multidrug resistant Streptococcus pneumoniae serotype 19A ATCC 700673 harboring mutant PBP2B PBP2X and PBP1A"}, "[14]": {"tested_on": "Streptococcus pneumoniae", "test": "Antibacterial activity against multidrug resistant Streptococcus pneumoniae serotype 24F URA5450 harboring mutant PBP2B PBP2X and PBP1A"}, "[15]": {"tested_on": "Streptococcus pneumoniae", "test": "Antibacterial activity against penicillin-cefotaxime- ceftriaxone-resistant Streptococcus pneumoniae URA6056 harboring mutant PBP2B PBP2X and PBP1A"}, "[16]": {"tested_on": "Streptococcus pneumoniae", "test": "Antibacterial activity against Streptococcus pneumoniae R6"}, "[17]": {"tested_on": "Streptococcus pneumoniae", "test": "Antibacterial activity against multidrug resistant Streptococcus pneumoniae serotype 23 URA3558 harboring mutant PBP2X and PBP1A"}, "[18]": {"tested_on": "Streptococcus pneumoniae", "test": "Antibacterial activity against penicillin-resistant Streptococcus pneumoniae serotype 14 URA5128 harboring mutant PBP2B PBP2X and PBP1A"}, "[19]": {"tested_on": "Streptococcus pneumoniae", "test": "Antibacterial activity against multidrug resistant Streptococcus pneumoniae serotype 14 URA4203 harboring mutant PBP2B PBP2X and PBP1A"}, "[20]": {"tested_on": "Streptococcus pneumoniae", "test": "Antibacterial activity against penicillin-resistant Streptococcus pneumoniae serotype 23F URA5391 harboring mutant PBP2B PBP2X and PBP1A"}, "[21]": {"tested_on": "Streptococcus pneumoniae", "test": "Antibacterial activity against penicillin-cefotaxime- ceftriaxone-resistant Streptococcus pneumoniae serotype 14 URA3543 harboring mutant PBP2B PBP2X and PBP1A"}, "[22]": {"tested_on": "Streptococcus pneumoniae", "test": "Antibacterial activity against multidrug resistant Streptococcus pneumoniae serotype 15A URA5779 harboring mutant PBP2B PBP2X and PBP1A"}, "[23]": {"tested_on": "Streptococcus pneumoniae", "test": "Antibacterial activity against multidrug resistant Streptococcus pneumoniae serotype 19A URA5805 harboring mutant PBP2B PBP2X and PBP1A"}, "[24]": {"tested_on": "Streptococcus pneumoniae", "test": "Antibacterial activity against penicillin-resistant Streptococcus pneumoniae serotype 19A URA3635 harboring mutant PBP2B PBP2X and PBP1A"}, "[25]": {"tested_on": "Streptococcus pneumoniae", "test": "Antibacterial activity against penicillin-cefotaxime- ceftriaxone-resistant Streptococcus pneumoniae serotype 14 URA3043 harboring mutant PBP2B PBP2X and PBP1A"}, "[26]": {"tested_on": "Streptococcus pneumoniae", "test": "Antibacterial activity against tetracycline- erythromycin- clindamycin-resistant Streptococcus pneumoniae serotype 6B URA4376 harboring mutant PBP1A"}}}
{"smiles": "CC1(C)S[C@@H]2[C@H](NC(=O)Cc3ccccc3)C(=O)N2[C@H]1C(=O)O", "note": "[PENICILLIN G]", "values": [{"measurement": "MIC", "setting": "[1]", "value": 0.5, "unit": "µg/mL"}, {"measurement": "MIC", "setting": "[2]", "value": 2, "unit": "µg/mL"}, {"measurement": "MIC", "setting": "[3]", "value": 0.0125, "unit": "µg/mL"}, {"measurement": "MIC", "setting": "[4]", "value": 0.1, "unit": "µg/mL"}, {"measurement": "MIC", "setting": "[5]", "value": 0.025, "unit": "µg/mL"}, {"measurement": "MIC", "setting": "[6]", "value": 0.0125, "unit": "µg/mL"}, {"measurement": "MIC", "setting": "[7]", "value": 0.1, "unit": "µg/mL"}, {"measurement": "MIC", "setting": "[8]", "value": 0.0125, "unit": "µg/mL"}, {"measurement": "MIC", "setting": "[9]", "value": 0.0125, "unit": "µg/mL"}, {"measurement": "MIC", "setting": "[10]", "value": 0.025, "unit": "µg/mL"}, {"measurement": "MIC", "setting": "[11]", "value": 0.1, "unit": "µg/mL"}, {"measurement": "MIC", "setting": "[12]", "value": 0.05, "unit": "µg/mL"}, {"measurement": "MIC", "setting": "[13]", "value": 2, "unit": "µg/mL"}, {"measurement": "MIC", "setting": "[14]", "value": 0.5, "unit": "µg/mL"}, {"measurement": "MIC", "setting": "[15]", "value": 3.2, "unit": "µg/mL"}, {"measurement": "MIC", "setting": "[16]", "value": 0.0125, "unit": "µg/mL"}, {"measurement": "MIC", "setting": "[17]", "value": 0.2, "unit": "µg/mL"}, {"measurement": "MIC", "setting": "[18]", "value": 0.5, "unit": "µg/mL"}, {"measurement": "MIC", "setting": "[19]", "value": 1.6, "unit": "µg/mL"}, {"measurement": "MIC", "setting": "[20]", "value": 0.1, "unit": "µg/mL"}, {"measurement": "MIC", "setting": "[21]", "value": 2, "unit": "µg/mL"}, {"measurement": "MIC", "setting": "[22]", "value": 0.1, "unit": "µg/mL"}, {"measurement": "MIC", "setting": "[23]", "value": 1.6, "unit": "µg/mL"}, {"measurement": "MIC", "setting": "[24]", "value": 0.1, "unit": "µg/mL"}, {"measurement": "MIC", "setting": "[25]", "value": 2, "unit": "µg/mL"}, {"measurement": "MIC", "setting": "[26]", "value": 0.0125, "unit": "µg/mL"}]}
